Legend:
herring sperm DNA (fDNA) = test: Interaction with fDNA by UV-vis spectroscopy, fluorescence spectroscopy and viscosity method; assay type: binding; conditions: UV-vis, fluorescence (fDNA-EB system), viscosity
Excerpt: UV-vis spectroscopy, fluorescence spectroscopy and viscosity method are used to study the interaction between the Ame and herring sperm DNA (fDNA), and the interaction between the Ame-Cu complex and herring sperm DNA (fDNA), to further reveal the mechanism of antitumor activity, the obtained spectra are shown in FIGS. 7-11. […] Thereby, it can be speculated that the mechanism of antitumor activity of the Ame and its complex may be that Ame or the complex thereof enters the interior of the cell and intercalates with the DNA strand to cause apoptosis. Since the interaction of the complex with DNA is stronger than of the Ame, the antitumor activity thereof is also stronger than of the Ame.

[1] = Pyrogallol auto-oxidation method, free radical scavenging; assay type: biochemical; conditions: Tris-HCl pH 8.20, 25° C., 322 nm, read-out: IC50 to scavenge O2^−. free radical
Description: (§1) The free radical scavenging capability of the Ame and the Ame-Cu complex were studied by pyrogallol auto-oxidation method and ABTS method with the following steps:
(1) Pyrogallol Auto-Oxidation Method
Determination of auto-oxidation rate V0 of pyrogallol: 2 mL Tris-HCl buffer (pH=8.20) was added to a 10 mL sample tube at 25° C., 100 μL DMSO was added as a control, after adding 0.8 mL distilled water, 0.2 mL pyrogallol solution having a concentration of 2 mmol·L^−1 was added, the mixture was poured into a cuvette after mixing uniformly, the absorbance at 322 nm was measured with pure water as a blank, the A value was recorded every 10 s for a total of 4 min, linear regression was performed with t as the abscissa, and A as the ordinate, straight line slope thereof is V0, and the measurement was performed for three times to obtain an average value. […]

[2] = ABTS method, free radical scavenging; assay type: biochemical; conditions: 25° C., 5 min reaction, 730 nm; read-out: IC50 for scavenging ABTS^+. free radicals
Description: as §1
Determination of ABTS^+. free radical ion scavenging capability of the blank sample: at 25° C., 2.9 mL ABTS^+. free radical ion working solution was added into a 10 mL sample tube, 100 μL DMSO was added, after reacting for 5 min, the UV-vis spectrum was measured, and the absorption intensity A0 at 730 nm was recorded.
Determination of […]. free radical ion scavenging capability of the samples: at 25° C., 2.9 mL ABTS^+. free radical ion working solution was added into a 10 mL sample tube, 100 μL samples of different concentrations that were dissolved in DMSO were added, after reacting for 5 min, the UV-vis spectrum was measured, and the absorption intensity A1 at 730 nm was recorded, and the ABTS^+. free radical ion scavenging rate was calculated according to Formula 4. SR(%)=(1−A1/A0)×100% (Formula 4)
The ABTS^+. free radical scavenging capabilities of the Ame and the Ame-Cu complex are concentration dependent. Within a certain range, the scavenging rate is linear with the concentration. The curve of the scavenging rate and the concentration (c) is plotted in the present invention to obtain a corresponding linear equation, and the maximum half-inhibitory concentration (IC50 value) is calculated.

SMILES	manner of interaction with fDNA (herring sperm DNA (fDNA))	IC50 [1] [µM]	IC50 [2] [µM]
O=c1cc(-c2ccc(O)c(-c3c(O)cc(O)c4c(=O)cc(-c5ccc(O)cc5)oc34)c2)oc2cc(O)cc(O)c12 [Ame, amentoflavone]	intercalation manner	23.3	20.7
CS(C)=[O+][Cu-4]1([O+]=S(C)C)[O+]=C2C=C(c3ccc(O)cc3)Oc3c2c(cc(O)c3-c2cc(-c3cc(=O)c4c(O)cc(O)cc4o3)ccc2O)[OH+]1 [Ame-Cu complex]	intercalation manner	4.57	6.31

— patent publication US10815252B2, “Biflavone-copper complex, preparation method and application thereof” (NANJING FORESTRY UNIVERSITY, priority 2017, dated 2020)
